Consider two compounds from publication PMC8780078, “Long‐acting and extended‐release implant and nanoformulations with a synergistic antiretroviral two‐drug combination controls HIV‐1 infection in a humanized mouse model” (Bioengineering & Translational Medicine, 2021).

Series [1] has as its system HIV‐1. Description: Antiviral potency in cellular assays / HIV cell culture. It counts as cell-based. As to conditions: Human immunodeficiency virus 1, in Discussion.
A short description of series [2]: Pharmacokinetics of drug release from subdermal implants in Hu‐PBL mice (serum, HPLC). It counts as in vivo. The following applies: end of study sera (Day 49 nanoformulations, Day 56 implants) vs EC90 in HIV cell culture. The procedure: Hu‐mice were anesthetized by i.p. injection of ketamine (80 mg/kg) and xylazine (12 mg/kg) in PBS (10 ml/kg) based on individual mouse body weight. After anesthetizing, approximately 1–2 cm square of the dorsal skin was shaved using an electric hair clipper, the area was cleaned with ethanol and disinfected with Betadine. Using a sterile disposable surgical blade, an incision of 4–5 mm was made through the skin. Gently, 2 cm × 3 cm subcutaneous pockets were created with forceps and implants loaded with Compound I and EFdA were co‐inserted at the same site. The opening was sutured using absorbable sutures followed by subcutaneous administration of 0.05 mg/kg buprenorphine. The animals were kept warm using the temperature‐controlled heating pads until they regained consciousness. Toxicity was evaluated by clinical observations, cage‐side observations (twice daily), and body weight (at least weekly). […]
The data were plotted as a concentration‐time curve using PRISM 9.0 (GraphPad Software Inc., La Jolla, CA). […] was calculated using Graph pad prism where EC50 of each compound was used along with Hill slope of 1. The predicted area under the curve (AUC) for drug concentration in blood serum against time (AUC predicted) was calculated based on the linear trapezoid method.[29] AUC was also calculated for PVLs and CD4+ T‐cells in infection experiments. […]

In series [3] the test system is HERG ion channel. On the set-up: method as in PMID 28167742. As to conditions: cited from earlier work.
Series [4] relates to HIV‐1. The following applies: cited from earlier work.

For `C#C[C@]1(CO)O[C@@H](n2cnc3c(N)nc(F)nc32)C[C@@H]1O` [EFdA, 4′‐ethynyl‐2‐fluoro‐2′‐deoxyadenosine, reference compound], the figures for the EC90 in series [1] and in series [1] (from EC50 with Hill slope of 1) were 5 ng/mL and 17.1 nM, respectively. In series [2], the “serum concentration fold above EC90” value was around 1100 fold.

`N#Cc1ccc2c(Oc3ccc(F)cc3OCCn3ccc(=O)[nH]c3=O)cc(F)cc2c1` [Compound I]: the results for the EC90 in series [1] and in series [1] (from EC50 with Hill slope of 1) were 10 ng/mL and 25.2 nM, respectively. In series [3], the “inhibition of the HERG ion channel” value is listed as “no inhibition”. Moreover, in series [4] (cell culture), the “synergy of Compound I with EFdA” value is “potent synergy”. Moreover, the “activity against wild‐type HIV‐1 strains and drug resistant variants” value in series [4] (wild‐type, Y181C and K103N) is “active in the nanomolar range”. Moreover, the “serum concentration fold above EC90” value in series [2] is “approximately 100 fold”.

What is called EC90 is the point of the concentration-response curve where the effect stands at 90%. Low readings indicate greater potency, high ones weaker potency.
